US5770623A, “Argine antagonists for inhibition of systemic hypotension associated with nitric oxide production or endothelial derived relaxing factor” (Board of Regents, The University of Texas System, priority 1995, dated 1998)
“Also recorded” adds a separate entry of the source.

Experiments:
[1] = tested on: mongrel dogs with TNF-induced hypotension; assay: TNF-induced hypotension in anesthetized dogs; format: in vivo, dog; conditions: for effect of L-arginine on NMMA pressor effect (words): TNF- and NMMA-treated dogs
Experimental: Recombinant human TNF specific activity 2×10^7 units/mg, was from the Niposn Chemical Corporation, Tokyo, Japan. TNF was administered at a dose of 10 mcg/kg in a volume of 10 ml of phosphate buffered saline containing 2 mgs/ml of dog albumin. […] Arginine was obtained from Sigma Chemical Company, St. Louis, Mo.
(§1) Four conditioned mongrel dogs, 2 males and 2 females, weighing 28 to 30 kgs, were studied. Care of the animals were in accordance with the recommendation of the American Association for Accreditation of Laboratory Animals [DHEW(DHHS) publication no. (NIH) 78-23, revised, 1978]. On the day of the experiment, the dogs were fasted overnight. They were anesthetized with phenobarbital (10 mg/kg). They were then intubated orally with a #10 fr. endotracheal tube and ventilated with a Harvard pump ventilator at a rate of 12 breaths per minute and a tidal volume of 15 ml/kg. An arterial line was percutaneously placed in the femoral artery on the day of the experiment.
(§2) Mean (electronic) and phasic systemic arterial pressures (SAP) were continuously recorded on a Hewlett-Packard recording system (model 7758B) using strain gauge manometers (Hewlett-Packard model 1290A) which were connected to the arterial line. Heart rate (HR) was determined from an EKG tracing and continuously recorded on the Hewlett-Packard recording system. Oxyhemoglobin saturation (SaO2) was obtained using a pulse oximeter (BIOX 111, Boulder, Colo.). continuous time-series records of SAP, HR, and SaO2 were obtained using a Lab Master analog-to-digital convertor (16 channel, 12 bit, 30 kHz; Scientific Solutions, Inc.) sampling at 55 Hz and storing the 6 sec averages on a magnetic disk.

[2] = tested on: nitroglycerin infused dogs; assay: Nitroglycerin-induced hypotension in dogs (Example 2); format: in vivo, dog
Experimental: as §1, §2
This was followed by a compensatory decrease in the HR with a return of the BP to baseline. The NMMA-induced bradycardia lasted 31 minutes. This response was not observed in animals which had been previously treated with TNF. In a subsequent experiment (FIG. 7a) the hypotensive response to TNF was especially severe, with a decrease in BP from 125 mm to 36 mmHg. […] This was associated with a decrease in the HR from 101 to 92 beats/minute. […] In a second control study nitroglycerin was infused at a rate of 28 μg/kg/minute, IV, to lower the blood pressure to the same level as that observed with tumor necrosis factor (FIG. 7c).

[3] = tested on: human internal mammary artery; assay: ACh-induced relaxation of human internal mammary artery; conditions: for effect on ACh-induced vasorelaxation: NE-preconstricted, FIG. 11
Text: FIG. 11 contains representative physiograph tracings which depict ACh-induced relaxation of NE-preconstricted rings prepared from rabbit aorta (upper panel) and human internal mammary artery (lower panel).

[4] = tested on: isolated guinea pig heart; assay: Histamine-induced nitrite release and coronary flow in isolated perfused guinea pig heart; conditions: for effect on coronary flow (vasodilation): histamine-elicited; for effect on EDRF/NO (nitrite) release: histamine-induced, FIG. 13
Experimental: Histamine was administered as a rapid bolus injection into the aorta and net nitrite release during the subsequent 2.5 minutes was determined.

[5] = tested on: nitroglycerin-treated dogs; assay: Nitroglycerin-induced hypotension in dogs (Example 4); format: in vivo, dog; conditions: for Cardiac Output / Heart Rate / Systemic Arterial Pressure / Systemic Vascular Resistance: Table 1, Study 2: Nitroglycerin-treated (n = 3)
Experimental: Animals: Studies were carried out on 12 conditioned mongrel dogs (9 males and 3 females) weighing 22-32 kg (avg=25.3 kg). Animal care was in accordance with the recommendations of the American Association for Accreditation of Laboratory Animal Care, and met all standards prescribed by the Guide for the Care and Use of Laboratory Animals (Guide for the Care and Use of Laboratory Animals (1978) Dept. of Health, Education and Welfare, Washington, D.C. (Publ. No. 78-23). Animal protocols were approved by The University of Texas Animal Welfare Committee. The dogs were fasted overnight prior to the day of experimentation. They were anesthetized with sodium pentobarbital (25 mg/kg I.v.). Dogs were then endotracheally intubated and ventilated with a piston-driven respirator (Harvard instruments) using room air at a tidal volume of 20 ml/kg and at a rate of 10 to 12 breaths per minute, adjusted to achieve a normal arterial pH and pCO2 (Instrumentation Laboratories 1L13012 pH/Blood Gas Analyzer). Catheters were placed percutaneously into the femoral and pulmonary arteries; In the latter, a flow-directed thermal-dilation catheter was used (Abbott Critical Care Systems).
Physiologic measurements: Mean SAP and heart rate were continuously monitored (Parametron 7048 Monitoring System, Roche) and stored on a magnetic disk using an analog-to-digital converter (Scientific Solutions, Inc.). Cardiac output (CO) was determined as the mean of six measurements by thermal-dilution. Systemic vascular resistance was calculated as (SAP X80)/CO and expressed as […].
Protocol: After the blood pressure and heart rate stabilized, endotoxin (40 ug/kg, in 10 ml of phosphate-buffered saline (PBS), pH 7.4) was infused i.v. over 2 minutes. This dose of endotoxin typically induces severe and often lethal cardiovascular collapse in the dog. Blood pressure was monitored, and when either SAP fell below 60 mmHg or a stable nadir in systemic arterial pressure (SAP) was maintained for 10 minutes, L-NMA was administered (20 mg/kg in 5 ml of PBS i.v. over 1 min.). In most experiments, L-arginine (400 mg/kg in 20 mi PBS) was administered ten minutes later by i.v. infusion over 2 minutes. In control experiments, dogs without prior exposure to endotoxin received L-NMA alone. To simulate the hypotension observed in dogs receiving endotoxin, one group of dogs received a continuous i.v. infusion of nitroglycerin (2 mg/ml) at a rate adjusted to maintain the SAP at 60-70 mm Hg. Nitroglycerin-treated dogs then received L-NMA (20 mg/kg) and 20 minutes later L-arginine was administered […].
In an additional series of experiments, blood pressure was reduced to 65 mm Hg by continuous i.v. infusion of nitroglycerin, a hypotensive agent that forms NO by an L-arginine and NO synthetase-independent mechanism.

[6] = tested on: vascular EDRF/NO synthesis; conditions: Sakuma et al., cited from earlier work

## N=C(N)NCCC[C@H](N)C(=O)O [L-arginine, reference compound]
[1]; FIG. 7a, after TNF and NMMA
  blood pressure after L-arginine: 37 mmHg
[1]
  effect of L-arginine on NMMA pressor effect (words): antagonized; also recorded: completely reversed; also recorded: rapid decrease of blood pressure
[1]; listed as arginine
  effect of L-arginine on NMMA pressor effect (words): reversed
[2]; nitroglycerin infused dogs
  effect of L-arginine after NMMA: reversed this modest effect
[3]
  effect on ACh-induced vasorelaxation: restores relaxation
[4]
  effect on coronary flow (vasodilation): restored
  effect on EDRF/NO (nitrite) release: restoration
[5]
  Cardiac Output: 5.15 ± 1.08 L/min
  Heart Rate: 148.7 ± 19.9 beats/min
  Systemic Arterial Pressure: 56.9 ± 13 mmHg
  Systemic Vascular Resistance: 1088.2 ± 491 dynes-sec/cm^5
[6]; excess L-arginine after L-NMA
  restoration of EDRF/NO synthesis: restored

## CNC(=N)NCCC[C@H](N)C(=O)O [NMMA, N^G -methyl-L-arginine]
[1]; FIG. 7a, TNF-treated
  blood pressure after NMMA: 115 mm
  increase in blood pressure by NMMA: 79 mm
[1]; after TNF
  time to pressor effect: ≤ 2 min
[1]; compared with normotensive dogs
  pressor response in TNF-hypotensive vs normotensive dogs: much more dramatic in dogs with TNF-induced hypotension than in normotensive dogs
[1]; dogs, TNF 10 mcg/kg
  reversal of TNF-associated hypotension: blocked; also recorded: reverse the hypotension
[2]; nitroglycerin 28 μg/kg/minute IV
  blood pressure increase by NMMA: 14 mm
[2]; similar level of hypotension
  antagonism of nitroglycerin hypotension: not antagonized
[3]
  effect on ACh-induced vasorelaxation: attenuate ACh-induced vasorelaxation
[3]; human
  inhibition of EDRF/NO in vascular preparation: arginine reversible inhibitor of EDRF/NO
[4]
  effect on coronary flow (vasodilation): attenuated
  effect on EDRF/NO (nitrite) release: inhibition
[4]; listed as L-NMA
  effect on EDRF/NO (nitrite) release: inhibits EDRF/NO release
[5]; L-NMA 20 mg/kg
  HR, CO or SVR after L-NMA: without significant alteration in HR, CO, or SVR
[5]
  Cardiac Output: 3.85 ± 0.8 L/min
  Heart Rate: 191.7 ± 35.0 beats/min
  Systemic Arterial Pressure: 81.8 ± 3.5 mmHg
  Systemic Vascular Resistance: 1851 ± 399 dynes-sec/cm^5
[5]; nitroglycerin infusion, L-NMA 20 mg/kg, n=3
  increase in blood pressure (SAP) by L-NMA: 17.1±5.0 mmHg
[6]; induced by acetylcholine and histamine
  inhibition of vascular EDRF/NO synthesis: inhibit vascular EDRF/NO synthesis
